Data: PubChem BioAssay (NCI)
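Test compounds were applied to cells in 96-well plates for 48 hours at 5 doses. TGI marks complete inhibition of growth.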

How the values were obtained:
Assay in all cases: NCI tumour cell line growth inhibition, 48 h
[1] = tested on: XF 498 CNS
[2] = tested on: NCI-H226 lung
[3] = tested on: SK-MEL-5 melanoma
[4] = tested on: RXF 393 renal
[5] = tested on: HCC-2998 colon
[6] = tested on: M19-MEL melanoma
[7] = tested on: SNB-19 CNS
[8] = tested on: OVCAR-5 ovarian
[9] = tested on: CAKI-1 renal
[10] = tested on: P388 leukemia
[11] = tested on: A549 NSCLC
[12] = tested on: HCT-116 colon
[13] = tested on: OVCAR-3 ovarian
[14] = tested on: SK-OV-3 ovarian
[15] = tested on: NCI-H522 lung
[16] = tested on: KM20L2 colon
[17] = tested on: SF-295 CNS
[18] = tested on: UACC-257 melanoma
[19] = tested on: SN12C renal
[20] = tested on: UACC-62 melanoma
[21] = tested on: HOP-62 NSCLC
[22] = tested on: NCI-H460 lung
[23] = tested on: CCRF-CEM leukemia
[24] = tested on: HOP-18 NSCLC
[25] = tested on: SN12K1 renal
[26] = tested on: MOLT-4 leukemia
[27] = tested on: HOP-92 NSCLC
[28] = tested on: EKVX NSCLC
[29] = tested on: SF-268 CNS
[30] = tested on: DLD-1 colon
[31] = tested on: HT29 colon
[32] = tested on: RPMI-8226 leukemia
[33] = tested on: OVCAR-8 ovarian
[34] = tested on: SF-539 CNS
[35] = tested on: HCT-15 colon
[36] = tested on: IGROV1 ovarian
[37] = tested on: HL-60(TB) leukemia
[38] = tested on: SNB-75 CNS
[39] = tested on: MALME-3M melanoma
[40] = tested on: A498 renal
[41] = tested on: DMS 114 small cell lung
[42] = tested on: NCI/ADR-RES ovarian
[43] = tested on: P388/ADR leukemia
[44] = tested on: KM12 colon
[45] = tested on: U251 CNS
[46] = tested on: DMS 273 small cell lung
[47] = tested on: MCF7 breast
[48] = tested on: K-562 leukemia
[49] = tested on: SK-MEL-2 melanoma
[50] = tested on: SW-620 colon
[51] = tested on: SK-MEL-28 melanoma
[52] = tested on: UO-31 renal
[53] = tested on: OVCAR-4 ovarian
[54] = tested on: COLO 205 colon
[55] = tested on: SNB-78 CNS
[56] = tested on: LOX IMVI melanoma
[57] = tested on: NCI-H23 lung

Cn1c(/C=C/CO)c(CO)c2c1C(=O)C=C(N1CC1)C2=O
TGI [1]: 17.1 nM | TGI [2]: 60.2 nM | TGI [3]: < 15 nM | TGI [4]: 11.2 nM | TGI [5]: 20.3 nM | TGI [6]: < 11 nM | TGI [7]: 36.9 nM | TGI [8]: < 27.3 nM | TGI [9]: 58.8 nM | TGI [10]: 4900 nM | TGI [11]: < 10 nM | TGI [12]: 1020 nM | TGI [13]: 56.1 nM | TGI [14]: 85.5 nM | TGI [15]: < 18 nM | TGI [16]: 63.9 nM | TGI [17]: < 10 nM | TGI [18]: 18 nM | TGI [19]: 25.3 nM | TGI [20]: < 11.5 nM | TGI [21]: < 13.9 nM | TGI [22]: < 10 nM | TGI [23]: 23900 nM | TGI [24]: < 10 nM | TGI [25]: 22.4 nM | TGI [26]: 4150 nM | TGI [27]: 488 nM | TGI [28]: 178 nM | TGI [29]: 37.9 nM | TGI [30]: 662 nM | TGI [31]: 53.4 nM | TGI [32]: 80.5 nM | TGI [33]: 93.6 nM | TGI [34]: < 16.3 nM | TGI [35]: < 15.9 nM | TGI [36]: 197 nM | TGI [37]: 682 nM | TGI [38]: < 12.4 nM | TGI [39]: 24 nM | TGI [40]: 23.5 nM | TGI [41]: 15.3 nM | TGI [42]: 34.6 nM | TGI [43]: 3910 nM | TGI [44]: 17.2 nM | TGI [45]: 10.1 nM | TGI [46]: < 10.7 nM | TGI [47]: 15.6 nM | TGI [48]: 378 nM | TGI [49]: < 10 nM | TGI [50]: 104 nM | TGI [51]: 202 nM | TGI [52]: < 10 nM | TGI [53]: 223 nM | TGI [54]: 23.6 nM | TGI [55]: 7210 nM | TGI [56]: 10.2 nM

O=Cc1c(Cn2ccnc2)c2cc([N+](=O)[O-])ccc2n1Cc1ccccc1
TGI [1]: > 100000 nM | TGI [2]: > 100000 nM | TGI [3]: > 100000 nM | TGI [4]: > 100000 nM | TGI [5]: > 100000 nM | TGI [6]: > 100000 nM | TGI [7]: > 100000 nM | TGI [8]: > 100000 nM | TGI [9]: 97300 nM | TGI [10]: > 100000 nM | TGI [11]: > 100000 nM | TGI [12]: > 100000 nM | TGI [13]: > 100000 nM | TGI [14]: > 100000 nM | TGI [15]: > 100000 nM | TGI [16]: > 100000 nM | TGI [17]: > 92300 nM | TGI [18]: > 100000 nM | TGI [19]: > 100000 nM | TGI [20]: > 100000 nM | TGI [21]: 90200 nM | TGI [22]: > 100000 nM | TGI [23]: > 100000 nM | TGI [24]: > 100000 nM | TGI [25]: > 100000 nM | TGI [26]: > 100000 nM | TGI [27]: > 100000 nM | TGI [28]: > 100000 nM | TGI [29]: > 100000 nM | TGI [30]: > 100000 nM | TGI [31]: > 100000 nM | TGI [32]: > 100000 nM | TGI [33]: > 100000 nM | TGI [34]: > 100000 nM | TGI [35]: > 100000 nM | TGI [36]: > 100000 nM | TGI [37]: > 41900 nM | TGI [38]: > 100000 nM | TGI [39]: > 100000 nM | TGI [40]: > 100000 nM | TGI [41]: > 100000 nM | TGI [42]: > 100000 nM | TGI [43]: > 100000 nM | TGI [44]: > 100000 nM | TGI [45]: > 100000 nM | TGI [46]: > 100000 nM | TGI [57]: > 100000 nM | TGI [47]: > 100000 nM | TGI [48]: > 100000 nM | TGI [49]: > 100000 nM | TGI [50]: > 100000 nM | TGI [51]: > 100000 nM | TGI [52]: > 100000 nM | TGI [53]: > 100000 nM | TGI [54]: > 100000 nM | TGI [55]: > 100000 nM | TGI [56]: > 100000 nM
